Numbers after ± are expanded uncertainties.
Legend:
[1] = 298.15 K, 101 kPa, Liquid; for speed of sound: Linear variable-path acoustic interferometer
[2] = mn = molality of the nth substance listed, in mol/kg; details: 298.15 K, 101 kPa, Liquid; for speed of sound: Linear variable-path acoustic interferometer

C1COCCO1 [1,4-dioxane]
mass density [1]: 1028.34 ± 0.38 kg/m3
speed of sound [1]: 1346.3 ± 1.9 m/s

C1COCCO1 [1,4-dioxane] + O
speed of sound ([2]; m2 = 0): 1346.3 ± 1.9 m/s
speed of sound ([2]; m2 = 0.07165): 1347.1 ± 1.9 m/s
speed of sound ([2]; m2 = 0.1214): 1347.8 ± 1.9 m/s
speed of sound ([2]; m2 = 0.1625): 1348.4 ± 1.9 m/s
speed of sound ([2]; m2 = 0.2272): 1349.2 ± 1.9 m/s
speed of sound ([2]; m2 = 0.3262): 1350 ± 1.9 m/s
speed of sound ([2]; m2 = 0.4214): 1350.9 ± 1.9 m/s
speed of sound ([2]; m2 = 0.6512): 1353 ± 1.9 m/s
speed of sound ([2]; m2 = 0.8375): 1354.8 ± 1.9 m/s
speed of sound ([2]; m2 = 1.022): 1356.5 ± 1.9 m/s
mass density ([2]; m2 = 0): 1028.34 ± 0.38 kg/m3
mass density ([2]; m2 = 0.07165): 1028.35 ± 0.38 kg/m3
mass density ([2]; m2 = 0.1214): 1028.36 ± 0.38 kg/m3
mass density ([2]; m2 = 0.1625): 1028.37 ± 0.38 kg/m3
mass density ([2]; m2 = 0.2272): 1028.39 ± 0.38 kg/m3
mass density ([2]; m2 = 0.3262): 1028.42 ± 0.38 kg/m3
mass density ([2]; m2 = 0.4214): 1028.46 ± 0.38 kg/m3
mass density ([2]; m2 = 0.6512): 1028.57 ± 0.38 kg/m3
mass density ([2]; m2 = 0.8375): 1028.67 ± 0.38 kg/m3
mass density ([2]; m2 = 1.022): 1028.78 ± 0.38 kg/m3

CC#N [acetonitrile]
mass density [1]: 776.389 ± 0.59 kg/m3
speed of sound [1]: 1281.3 ± 1.9 m/s

CC#N [acetonitrile] + O
speed of sound ([2]; m2 = 0): 1281.3 ± 1.9 m/s
speed of sound ([2]; m2 = 0.1197): 1281.5 ± 1.9 m/s
speed of sound ([2]; m2 = 0.1729): 1282 ± 1.9 m/s
speed of sound ([2]; m2 = 0.2244): 1282.2 ± 1.9 m/s
speed of sound ([2]; m2 = 0.2674): 1282.4 ± 1.9 m/s
speed of sound ([2]; m2 = 0.3192): 1282.2 ± 1.9 m/s
speed of sound ([2]; m2 = 0.4188): 1282.6 ± 1.9 m/s
speed of sound ([2]; m2 = 0.5198): 1283 ± 1.9 m/s
speed of sound ([2]; m2 = 0.621): 1284 ± 1.9 m/s
speed of sound ([2]; m2 = 0.7217): 1284.3 ± 1.9 m/s
speed of sound ([2]; m2 = 0.8212): 1284.7 ± 1.9 m/s
speed of sound ([2]; m2 = 0.9205): 1285.5 ± 1.9 m/s
speed of sound ([2]; m2 = 1.02): 1286.5 ± 1.9 m/s
mass density ([2]; m2 = 0): 776.389 ± 0.59 kg/m3
mass density ([2]; m2 = 0.1197): 776.819 ± 0.59 kg/m3
mass density ([2]; m2 = 0.1729): 777.019 ± 0.59 kg/m3
mass density ([2]; m2 = 0.2244): 777.174 ± 0.59 kg/m3
mass density ([2]; m2 = 0.2674): 777.435 ± 0.59 kg/m3
mass density ([2]; m2 = 0.3192): 777.518 ± 0.59 kg/m3
mass density ([2]; m2 = 0.4188): 777.923 ± 0.59 kg/m3
mass density ([2]; m2 = 0.5198): 778.218 ± 0.59 kg/m3
mass density ([2]; m2 = 0.621): 778.584 ± 0.59 kg/m3
mass density ([2]; m2 = 0.7217): 778.921 ± 0.59 kg/m3
mass density ([2]; m2 = 0.8212): 779.276 ± 0.59 kg/m3
mass density ([2]; m2 = 0.9205): 779.631 ± 0.59 kg/m3
mass density ([2]; m2 = 1.02): 779.949 ± 0.59 kg/m3

CCCCO [butan-1-ol]
mass density [1]: 806.024 ± 0.56 kg/m3
speed of sound [1]: 1241.6 ± 1.9 m/s

CCCCO [butan-1-ol] + O
speed of sound ([2]; m2 = 0): 1241.6 ± 1.9 m/s
speed of sound ([2]; m2 = 0.1588): 1242.9 ± 1.9 m/s
speed of sound ([2]; m2 = 0.2034): 1243.3 ± 1.9 m/s
speed of sound ([2]; m2 = 0.2526): 1243.2 ± 1.9 m/s
speed of sound ([2]; m2 = 0.3019): 1243.6 ± 1.9 m/s
speed of sound ([2]; m2 = 0.3998): 1244.5 ± 1.9 m/s
speed of sound ([2]; m2 = 0.5007): 1246.2 ± 1.9 m/s
speed of sound ([2]; m2 = 0.6011): 1247 ± 1.9 m/s
speed of sound ([2]; m2 = 0.705): 1248 ± 1.9 m/s
speed of sound ([2]; m2 = 0.8032): 1248.8 ± 1.9 m/s
speed of sound ([2]; m2 = 0.9017): 1249.7 ± 1.9 m/s
mass density ([2]; m2 = 0): 806.024 ± 0.56 kg/m3
mass density ([2]; m2 = 0.1588): 806.701 ± 0.56 kg/m3
mass density ([2]; m2 = 0.2034): 806.906 ± 0.56 kg/m3
mass density ([2]; m2 = 0.2526): 807.034 ± 0.56 kg/m3
mass density ([2]; m2 = 0.3019): 807.215 ± 0.56 kg/m3
mass density ([2]; m2 = 0.3998): 807.558 ± 0.56 kg/m3
mass density ([2]; m2 = 0.5007): 807.906 ± 0.56 kg/m3
mass density ([2]; m2 = 0.6011): 808.262 ± 0.56 kg/m3
mass density ([2]; m2 = 0.705): 808.615 ± 0.55 kg/m3
mass density ([2]; m2 = 0.8032): 808.946 ± 0.55 kg/m3
mass density ([2]; m2 = 0.9017): 809.283 ± 0.55 kg/m3

CN(C)C=O [dimethylformamide]
mass density [1]: 944.076 ± 0.39 kg/m3
speed of sound [1]: 1460.2 ± 2 m/s

CN(C)C=O [dimethylformamide] + O
speed of sound ([2]; m2 = 0): 1460.2 ± 2 m/s
speed of sound ([2]; m2 = 0.08457): 1461.1 ± 2 m/s
speed of sound ([2]; m2 = 0.1304): 1461.8 ± 2 m/s
speed of sound ([2]; m2 = 0.1738): 1462.4 ± 2 m/s
speed of sound ([2]; m2 = 0.2315): 1463.9 ± 2 m/s
speed of sound ([2]; m2 = 0.2762): 1464.1 ± 2 m/s
speed of sound ([2]; m2 = 0.3215): 1464.2 ± 2 m/s
speed of sound ([2]; m2 = 0.4146): 1465.5 ± 2 m/s
speed of sound ([2]; m2 = 0.5189): 1467.4 ± 2 m/s
speed of sound ([2]; m2 = 0.6115): 1468.1 ± 2 m/s
speed of sound ([2]; m2 = 0.7123): 1469.4 ± 2 m/s
speed of sound ([2]; m2 = 0.81): 1470.7 ± 2 m/s
speed of sound ([2]; m2 = 0.9044): 1472.3 ± 2 m/s
speed of sound ([2]; m2 = 1.001): 1473.3 ± 2 m/s
mass density ([2]; m2 = 0): 944.076 ± 0.39 kg/m3
mass density ([2]; m2 = 0.08457): 944.384 ± 0.39 kg/m3
mass density ([2]; m2 = 0.1304): 944.54 ± 0.39 kg/m3
mass density ([2]; m2 = 0.1738): 944.701 ± 0.39 kg/m3
mass density ([2]; m2 = 0.2315): 944.826 ± 0.39 kg/m3
mass density ([2]; m2 = 0.2762): 945.027 ± 0.39 kg/m3
mass density ([2]; m2 = 0.3215): 945.143 ± 0.39 kg/m3
mass density ([2]; m2 = 0.4146): 945.584 ± 0.39 kg/m3
mass density ([2]; m2 = 0.5189): 945.835 ± 0.39 kg/m3
mass density ([2]; m2 = 0.6115): 946.263 ± 0.39 kg/m3
mass density ([2]; m2 = 0.7123): 946.49 ± 0.39 kg/m3
mass density ([2]; m2 = 0.81): 946.853 ± 0.39 kg/m3
mass density ([2]; m2 = 0.9044): 947.103 ± 0.39 kg/m3
mass density ([2]; m2 = 1.001): 947.417 ± 0.39 kg/m3

Source: the NIST ThermoML archive (doi:10.1021/je0601098)
